Results: patent US20250332159A1, “REACTIVE OXYGEN SPECIES MODULATION THROUGH BINDING OF LIGANDS AT THE NQ-BINDING SITE OF THE RESPIRATORY COMPLEX III” (University of Health Sciences & Pharmacy in St. Louis, priority 2024, published 2025)

Key:
Assay type in all cases: cell-based, human
[1] = system: MCF7 cells; experiment: Qo and Qi inhibition experiments: mitochondrial superoxide anion with myxothiazol or antimycin A; settings: for mitochondrial superoxide anion level, ligand with antimycin (ANT): 25 μM ligand + 25 μM ANT (Qi site inhibitor); for mitochondrial superoxide anion level, ligand with myxothiazol (MYX): 25 μM ligand + 25 μM MYX (Qo site inhibitor)
Protocol: (§1) The MCF7 breast cancer cell line (ATCC, HTB-22) was purchased from American Type Culture Collection (ATCC, Manassas, VA) and propagated in Eagle's minimum essential medium (EMEM, ATCC) supplemented with 10% FBS (Thermo Scientific), 1% L-glutamine and 1% penicillin/streptomycin (ATCC) in a humidified incubator at 37° C. and 5% CO2. Cells were harvested and seeded into a 96-well black plate at a cell density of 25,000 cells/well and left overnight to adhere. Afterward, cells were treated with 25 μM of the 14 purchased ligands from MolPort (Riga, Latvia), positive control (i.e., doxorubicin), and negative control (i.e., DMSO) and left in the incubator for 6-8 hours. For the Qo and Qi inhibition experiments, 25 μM of myxothiazol or antimycin A (Sigma-Aldrich), respectively were also incubated. Negative controls for the inhibition experiments were composed of DMSO and either 25 μM of myxothiazol or antimycin A. Afterward, cells were washed and stained for 30 minutes at 37° C. and 5% CO2 in the dark using the CellRox Green (Invitrogen, USA) or the MitoSOX Red Assay Kit (Invitrogen, USA). Afterward, cells were washed, and total cellular ROS or mitochondrial superoxide anion levels were measured using the Synergy Biotek UV/Vis/fluorescence microplate reader with excitation/emission wavelengths of 490/525 nm or 396/610 nm, respectively. Nuclei were labeled using NucBlue Live ReadyProbes Reagent (Hoechst 33342). All experiments were performed in at least triplicate and repeated for at least three independent trials.

[2] = system: MCF7 cells; experiment: Total cellular ROS measurement (CellRox Green); settings: 25 μM, 6-8 hours
Protocol: as §1

[3] = system: MCF7 cells; experiment: MTS cytotoxicity assay; settings: MCF7 cell line, 48 hours
Source text: MCF7 cells were harvested and seeded at a cell density of 5,000 cells/well into a 96-well white plate and left overnight to adhere. […] Then, cells were washed and assayed for cytotoxicity using CellTiter 96® AQueous One Solution Cell Proliferation Assay kit (MTS) (Promega, USA), which is a colorimetric assay containing colorless tetrazolium compound that is bio-reduced by NADPH or NADH produced by dehydrogenase enzymes in metabolically active cells into a colored formazan product that can be measured at wavelength 490 nm using the Synergy Biotek plate reader. Sequential treatment was performed by incubating the overnight attached MCF7 cells with 25 μM of MH-200102 for 24 hours. Then, the cells were washed once and incubated with different concentrations of MH-101015 for another 24 hours. Then, the cells were assayed for cytotoxicity, as mentioned above.

| SMILES | mitochondrial superoxide anion level, ligand with antimycin (ANT) [1] | mitochondrial superoxide anion level, ligand with myxothiazol (MYX) [1] | total ROS level compared to negative control (DMSO) [2] | cytotoxic activity ([3]; 0-100 μM) | IC50 ([3]; Homo sapiens, single treatment, read-out: cytotoxic activity IC50) |
| --- | --- | --- | --- | --- | --- |
| O=C(O)c1cccc2ncccc12 [MH-01015] | ANT blocks any ROS down-regulating activity | MYX blocks any ROS down-modulating activity | total ROS down-regulating activity |  |  |
| Cc1cc(I)ccc1NC(=O)c1ccc(Br)c(N)c1 [MH-04504] |  | MYX blocks the ROS up-modulating activity | modest total ROS upregulating activity | modest cytotoxic activity |  |
| COCc1cnc2n1CCN(C(=O)c1cscn1)[C@H]2C [MH-131013] | ANT blocks any ROS down-regulating activity | MYX blocks any ROS down-modulating activity | total ROS down-regulating activity |  |  |
| O=C(CSc1ccccc1)NCCCn1ccnc1 [MH-200102] |  | MYX blocks the ROS up-modulating activity | twofold |  | 14.6 µM |
